The target of assay [1] is hCB2 (Homo sapiens, UniProt P34972). The assay can be described thus: cAMP determination in functional hCB2-CHO stable cells (HTRF). It is filed as cell-based. (In general: Time-resolved FRET reads energy transfer from a long-lived donor to a nearby acceptor.)
Assay [2] relates to rats. Put plainly: FCA-induced inflammatory allodynia, paw withdrawal threshold, von Frey filaments. Type of assay: in vivo. The conditions noted are these: mechanical allodynia 7 days after FCA injection, dose 10 mg/kg. Here is the method:
FCA (Freund's Complete Adjuvant)—Induced Inflammatory Allodynia:
An emulsion of Freund's Complete Adjuvant (FCA), containing heat killed Mycobacterium tuberculosis (4 mg/ml) in incomplete Freund's adjuvant and saline (1:1) at a final concentration of 2 mg/ml, when injected (150 μl) into the plantar region of the paw of rats induces an inflammatory pain. Mechanical allodynia (7 days after injection) was assessed by measuring hind paw withdrawal thresholds with von Frey filaments. The 50% paw withdrawal threshold was determined using up and down method of Dixon and as per the Chaplan method.

Assay [3] has as its system rats. Put plainly: Chronic constriction injury (CCI)-induced neuropathic pain (Bennett's model), mechanical allodynia, von Frey filaments. Type of assay: in vivo. The conditions noted are these: CCI of sciatic nerve, mechanical allodynia after 10-15 days, dose 10 mg/kg. Here is the method: Chronic Constriction Injury (CCI)—Induced Neuropathic Pain (Bennett's Model):
Chronic constriction injury (CCI) of sciatic nerve in rats induces mechanical allodynia in this Bennet's neuropathic pain model. Rats were anesthetized using ketamine/xylazine (50/5 mg/kg, i.p.) and the left sciatic nerve was exposed at mid thigh level through a small incision. Four loose ligatures of 4-0 chromic cat gut (Ethicon—Johnson & Johnson) at 1 mm space were placed around the sciatic nerve after the bifurcation of common sciatic nerve. After 10-15 days, mechanical allodynia was assessed by measuring hind paw withdrawal thresholds with von Frey filaments. The 50% paw withdrawal threshold was determined using up and down method of Dixon and as per the Chaplan method.

Consider three compounds from US9006442B2, “Cannabinoid receptor modulators” (Lupin Limited, priority 2011, dated 2015).

As usually defined, the EC50 is the concentration needed to bring the measured effect to its halfway point. A higher EC50 goes with lower potency in that assay.

Chain of hCB2 (P34972 whole entry): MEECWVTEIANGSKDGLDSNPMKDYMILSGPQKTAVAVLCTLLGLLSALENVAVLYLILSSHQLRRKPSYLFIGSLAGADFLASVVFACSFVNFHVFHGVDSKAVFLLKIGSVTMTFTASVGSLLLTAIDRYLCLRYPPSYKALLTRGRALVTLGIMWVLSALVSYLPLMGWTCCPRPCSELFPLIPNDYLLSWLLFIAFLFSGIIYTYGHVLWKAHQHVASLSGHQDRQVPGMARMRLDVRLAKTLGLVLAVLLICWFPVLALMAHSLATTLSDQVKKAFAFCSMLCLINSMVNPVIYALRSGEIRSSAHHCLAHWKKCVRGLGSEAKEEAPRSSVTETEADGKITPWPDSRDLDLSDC

For the compound `Cc1cccc2c(Nc3cccc(Cl)c3)ncc(C(=O)N3CCCCC3)c12` [Example-22, (1-((3-Chlorophenyl)amino)-5-methylisoquinolin-4-yl)(piperidin-1-yl)methanone], the EC50 in assay [1] is below 10 nM. In assay [2], the “% Improvement (MEAN ± S.E.M.) in Paw withdrawal Threshold, 1 h” value stood at 17.7 ± 7.1% and the “% Improvement (MEAN ± S.E.M.) in Paw withdrawal Threshold, 2 h” value was 30.7 ± 8.8 %. Besides, in assay [3], the “% Improvement (MEAN ± S.E.M.) in Paw withdrawal Threshold, 1 h” value was found to be 61.8 ± 10.1 % and the “% Improvement (MEAN ± S.E.M.) in Paw withdrawal Threshold, 2 h” value was determined as 70.2 ± 9.5 %.
On the same counts, the results for `Cc1cccc2c(Nc3cccc(Cl)c3)ncc(C(=O)N3CC4CC(C3)O4)c12` [Example-39, 6-Oxa-3-azabicyclo[3.1.1]heptan-3-yl(1-((3-chlorophenyl)amino)-5-methylisoquinolin-4-yl)methanone] are below 10 nM, 2.10 ± 1.87%, 10.22 ± 4.68%, 11.6 ± 12.8% and 0.7 ± 1.1%.
On the same counts, the results for `Cc1cccc2c(Nc3cccc(C(F)(F)F)c3)ncc(C(=O)N3CC4CC(C3)O4)c12` [Example-40, 6-Oxa-3-azabicyclo[3.1.1]heptan-3-yl(5-methyl-1-((3-(trifluoromethyl)phenyl)amino)isoquinolin-4-yl)methanone] are below 10 nM, 12.8 ± 4.6%, 13.8 ± 4.5%, 21.6 ± 10.6% and 11.2 ± 2.9%.
